Molecular target: T1, UCP1 (Mus musculus, UniProt P12242)
T1 construct: native full-length protein in the inner mitochondrial membrane; mitoplasts from brown (or beige) fat; no tags
T1 sequence (P12242 1-307): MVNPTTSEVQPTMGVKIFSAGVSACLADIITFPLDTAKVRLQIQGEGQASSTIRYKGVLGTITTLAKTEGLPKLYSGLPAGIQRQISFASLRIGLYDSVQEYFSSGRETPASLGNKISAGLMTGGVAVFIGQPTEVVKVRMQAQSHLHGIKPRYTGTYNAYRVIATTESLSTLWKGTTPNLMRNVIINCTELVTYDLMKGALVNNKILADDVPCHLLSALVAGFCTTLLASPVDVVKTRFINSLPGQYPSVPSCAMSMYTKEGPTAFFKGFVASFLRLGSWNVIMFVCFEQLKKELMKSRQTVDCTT
Experiment: whole-mitoplast patch-clamp, inhibition of H+ current
Format: biochemical
Conditions: Mg2+-free ATP, cytosolic side; current activated by 0.2 mM oleic acid / 10 mM MβCD; symmetrical pH 7.0; competitive with fatty acid; figure reproduced from the same laboratory's Fedorenko et al. 2012

Structure (SMILES): Nc1ncnc2c1ncn2[C@@H]1O[C@H](COP(=O)(O)OP(=O)(O)OP(=O)(O)O)[C@@H](O)[C@H]1O [ATP]
- IC50: 2.1 ± 0.1 µM

— paper PMC7174661, “Patch-Clamp Analysis of the Mitochondrial H^+ Leak in Brown and Beige Fat” (Frontiers in Physiology, 2020)
